According to ChEMBL document CHEMBL1151339, “Antitumor agents from bohemic acid complex, III. The isolation of marcellomycin, musettamycin, rudolphomycin, mimimycin, collinemycin, alcindoromycin, and bohemamine” (J Nat Prod, 1980):
Values after ≈ are worked out from the molar mass of the structure shown.

Key:
[1] = system: Mus musculus; experiment: Toxicity in BDF1 mouse xenografted with mouse L1210 cells assessed as survival at 6.4 mg/kg, ip after 5 days; assay type: organism-based; design: dose 6.4 mg/kg, route intraperitoneal; details: in vivo, 120 h
[2] = system: Mus musculus; experiment: Toxicity in BDF1 mouse xenografted with mouse L1210 cells assessed as survival at 3.2 mg/kg, ip after 5 days; assay type: organism-based; design: dose 3.2 mg/kg, route intraperitoneal; details: in vivo, 120 h
[3] = system: Mus musculus; experiment: Toxicity in BDF1 mouse xenografted with mouse L1210 cells assessed as survival at 1.6 mg/kg, ip after 5 days; assay type: organism-based; design: dose 1.6 mg/kg, route intraperitoneal; details: in vivo, 120 h
[4] = system: Mus musculus; experiment: Toxicity in BDF1 mouse xenografted with mouse L1210 cells assessed as survival at 51.2 mg/kg, ip after 5 days; assay type: organism-based; design: dose 51.2 mg/kg, route intraperitoneal; details: in vivo, 120 h
[5] = system: Mus musculus; experiment: Toxicity in BDF1 mouse xenografted with mouse L1210 cells assessed as survival at 25.6 mg/kg, ip after 5 days; assay type: organism-based; design: dose 25.6 mg/kg, route intraperitoneal; details: in vivo, 120 h
[6] = system: Pseudomonas aeruginosa; experiment: Antibacterial activity against Pseudomonas aeruginosa A-9843A by 2-fold tube dilution method; assay type: functional
[7] = system: Enterococcus faecalis; experiment: Antibacterial activity against Streptococcus faecalis A20688 by 2-fold tube dilution method; assay type: functional
[8] = system: Staphylococcus; experiment: Antibacterial activity against penicillin resistant Staphylococcus A-9606 by 2-fold tube dilution method; assay type: functional
[9] = system: Streptococcus pneumoniae; experiment: Antibacterial activity against Streptococcus pneumoniae A-9585 by 2-fold tube dilution method; assay type: functional
[10] = system: Streptococcus pyogenes; experiment: Antibacterial activity against Streptococcus pyogenes A-9604 by 2-fold tube dilution method; assay type: functional
[11] = system: Staphylococcus aureus; experiment: Antibacterial activity against Staphylococcus aureus A-9497 by 2-fold tube dilution method; assay type: functional
[12] = system: Escherichia coli; experiment: Antibacterial activity against Escherichia coli A15119 by 2-fold tube dilution method; assay type: functional
[13] = system: Escherichia coli; experiment: Antibacterial activity against Escherichia coli A20341-1 by 2-fold tube dilution method; assay type: functional
[14] = system: Klebsiella pneumoniae; experiment: Antibacterial activity against Klebsiella pneumoniae A15130 by 2-fold tube dilution method; assay type: functional
[15] = system: Proteus mirabilis; experiment: Antibacterial activity against Proteus mirabilis A-9900 by 2-fold tube dilution method; assay type: functional
[16] = system: Proteus vulgaris; experiment: Antibacterial activity against Proteus vulgaris A21559 by 2-fold tube dilution method; assay type: functional
[17] = system: Serratia marcescens; experiment: Antibacterial activity against Serratia marcescens A20019 by 2-fold tube dilution method; assay type: functional
[18] = system: Enterobacter cloacae; experiment: Antibacterial activity against Enterobacter cloacae A-9659 by 2-fold tube dilution method; assay type: functional
[19] = system: Candida albicans; experiment: Antifungal activity against Candida albicans A-9540 by 2-fold tube dilution method; assay type: functional
[20] = system: Candida albicans; experiment: Antifungal activity against Candida albicans A15049 by 2-fold tube dilution method; assay type: functional
[21] = system: Candida albicans; experiment: Antifungal activity against Candida albicans A15050 by 2-fold tube dilution method; assay type: functional
[22] = system: Candida tropicalis; experiment: Antifungal activity against Candida tropicalis A15051 by 2-fold tube dilution method; assay type: functional
[23] = system: Pichia kudriavzevii; experiment: Antifungal activity against Candida krusei A15052 by 2-fold tube dilution method; assay type: functional
[24] = system: Trichophyton mentagrophytes; experiment: Antifungal activity against Trichophyton mentagrophytes A-9870 by 2-fold tube dilution method; assay type: functional
[25] = system: Microsporum canis; experiment: Antifungal activity against Microsporum canis A-9872 by 2-fold tube dilution method; assay type: functional
[26] = system: L1210; experiment: Antitumor activity against mouse L1210 cells xenografted in BDF1 mouse assessed as median survival time at 12.8 mg/kg, ip; assay type: functional; details: route intraperitoneal
[27] = system: L1210; experiment: Antitumor activity against mouse L1210 cells xenografted in BDF1 mouse assessed as median survival time at 6.4 mg/kg, ip; assay type: functional; details: route intraperitoneal
[28] = system: L1210; experiment: Antitumor activity against mouse L1210 cells xenografted in BDF1 mouse assessed as median survival time at 3.2 mg/kg, ip; assay type: functional; details: route intraperitoneal
[29] = system: L1210; experiment: Antitumor activity against mouse L1210 cells xenografted in BDF1 mouse assessed as median survival time at 1.6 mg/kg, ip; assay type: functional; details: route intraperitoneal
[30] = system: L1210; experiment: Antitumor activity against mouse L1210 cells xenografted in BDF1 mouse assessed as median survival time at 51.2 mg/kg, ip; assay type: functional; details: route intraperitoneal
[31] = system: L1210; experiment: Antitumor activity against mouse L1210 cells xenografted in BDF1 mouse assessed as median survival time at 25.6 mg/kg, ip; assay type: functional; details: route intraperitoneal
[32] = system: L1210; experiment: Antitumor activity against mouse L1210 cells xenografted in BDF1 mouse at 12.8 mg/kg, ip relative to control; assay type: functional; details: route intraperitoneal
[33] = system: L1210; experiment: Antitumor activity against mouse L1210 cells xenografted in BDF1 mouse at 6.4 mg/kg, ip relative to control; assay type: functional; details: route intraperitoneal
[34] = system: L1210; experiment: Antitumor activity against mouse L1210 cells xenografted in BDF1 mouse at 3.2 mg/kg, ip relative to control; assay type: functional; details: route intraperitoneal
[35] = system: L1210; experiment: Antitumor activity against mouse L1210 cells xenografted in BDF1 mouse at 1.6 mg/kg, ip relative to control; assay type: functional; details: route intraperitoneal
[36] = system: L1210; experiment: Antitumor activity against mouse L1210 cells xenografted in BDF1 mouse at 51.2 mg/kg, ip relative to control; assay type: functional; details: route intraperitoneal
[37] = system: L1210; experiment: Antitumor activity against mouse L1210 cells xenografted in BDF1 mouse at 25.6 mg/kg, ip relative to control; assay type: functional; details: route intraperitoneal
[38] = system: L1210; experiment: Antitumor activity against mouse L1210 cells xenografted in BDF1 mouse assessed as change in tumor average weight at 12.8 mg/kg, ip; assay type: functional; details: route intraperitoneal
[39] = system: L1210; experiment: Antitumor activity against mouse L1210 cells xenografted in BDF1 mouse assessed as change in tumor average weight at 6.4 mg/kg, ip; assay type: functional; details: route intraperitoneal
[40] = system: L1210; experiment: Antitumor activity against mouse L1210 cells xenografted in BDF1 mouse assessed as change in tumor average weight at 3.2 mg/kg, ip; assay type: functional; details: route intraperitoneal
[41] = system: L1210; experiment: Antitumor activity against mouse L1210 cells xenografted in BDF1 mouse assessed as change in tumor average weight at 1.6 mg/kg, ip; assay type: functional; details: route intraperitoneal
[42] = system: L1210; experiment: Antitumor activity against mouse L1210 cells xenografted in BDF1 mouse assessed as change in tumor average weight at 51.2 mg/kg, ip; assay type: functional; details: route intraperitoneal
[43] = system: L1210; experiment: Antitumor activity against mouse L1210 cells xenografted in BDF1 mouse assessed as change in tumor average weight at 25.6 mg/kg, ip; assay type: functional; details: route intraperitoneal
[44] = system: Mus musculus; experiment: Toxicity in BDF1 mouse xenografted with mouse L1210 cells assessed as survival at 12.8 mg/kg, ip after 5 days; assay type: organism-based; design: dose 12.8 mg/kg, route intraperitoneal; details: in vivo, 120 h

## CC[C@@]1(O)C[C@H](O[C@H]2C[C@H](NC)[C@H](O[C@H]3C[C@H](O)[C@H](O[C@@H]4C[C@H](O)[C@H](O)[C@H](C)O4)[C@H](C)O3)[C@@H](C)O2)c2c(cc3c(c2O)C(=O)c2c(O)ccc(O)c2C3=O)[C@H]1C(=O)OC [ALCINDOROMYCIN]
[1]
  Activity: Non-toxic
[2]
  Activity: Non-toxic
[3]
  Activity: Non-toxic
[4]
  Activity: Non-toxic
[5]
  Activity: Non-toxic
[6]
  MIC: > 125 µg/mL
[7]
  MIC: 8 µg/mL (≈ 9.62 µM)
[8]
  MIC: 63 µg/mL (≈ 75.7 µM)
[9]
  MIC: 1 µg/mL (≈ 1.2 µM)
[10]
  MIC: 2 µg/mL (≈ 2.4 µM)
[11]
  MIC: 8 µg/mL (≈ 9.62 µM)
[12]
  MIC: > 125 µg/mL
[13]
  MIC: > 125 µg/mL
[14]
  MIC: > 125 µg/mL
[15]
  MIC: > 125 µg/mL
[16]
  MIC: > 125 µg/mL
[17]
  MIC: > 125 µg/mL
[18]
  MIC: > 125 µg/mL
[19]
  MIC: > 16 µg/mL
[20]
  MIC: > 16 µg/mL
[21]
  MIC: > 16 µg/mL
[22]
  MIC: > 16 µg/mL
[23]
  MIC: > 16 µg/mL
[24]
  MIC: > 16 µg/mL
[25]
  MIC: > 16 µg/mL
[26]
  Activity: 9.5 days
[27]
  Activity: 8 days
[28]
  Activity: 8.5 days
[29]
  Activity: 7 days
[30]
  Activity: 11 days
[31]
  Activity: 10 days
[32]
  T/C: 128%
[33]
  T/C: 107%
[34]
  T/C: 113%
[35]
  T/C: 93%
[36]
  T/C: 147%
[37]
  T/C: 133%
[38]
  Activity: -0.8 g
[39]
  Activity: 0.6 g
[40]
  Activity: 0.5 g
[41]
  Activity: 1.3 g
[42]
  Activity: -2.7 g
[43]
  Activity: -1.9 g
[44]
  Activity: Non-toxic
